In patent US8822513B2, “Compounds for treatment of cancer” (GTX, Inc., priority 2010, dated 2014):
Read-outs that look alike come from different tables or passages of the source.

Assays:
[1] = system: prostate cancer cell lines (LNCaP, PC-3, DU-145, PPC-1); test: SRB cytotoxicity, prostate cancer cell lines (panel statements); conditions: Homo sapiens, read-out: IC50 against prostate cancer cells
[2] = Metabolic stability in human liver microsomes; conditions: for Half life in Human liver microsome: Table 20
[3] = system: tubulin (colchicine, vinblastine, paclitaxel binding sites); test: MS competitive binding assay
Description: Each reaction was run in triplicate.

Bovine brain tubulin = test: In vitro tubulin polymerization assay (bovine brain tubulin); assay type: biochemical
Method: The spectrophotometer was maintained at 37° C. for tubulin polymerization.

[4] = Rotarod test (in vivo neurotoxicity); set-up: species or system mouse; conditions: ICR mice; 1h 5 or 15 mg/kg, vinblastine 0.5 mg/kg, i.p. daily
Method: ICR mice received training three times a day for two days to enable them to stay on the rotating rod for >120 seconds at 12 rpm. Mice were then randomized by the length of time that they could stay on the rotating rod and divided into 7-8 mice per group. […] The rotarod test was performed twice a week. […] The rod speed was increased from […] to 40 rpm over a period of 5 min. Performance was measured as the length of time that a mouse could stay on the rotating rod.

[5] = ICR mice, 4 consecutive days i.p.
A375 melanoma xenografts = test: In vivo efficacy, A375 melanoma xenograft in nude mice (SMART compounds); set-up: species or system mouse; conditions: 15 mg/kg i.p.
PC-3 xenografts = test: In vivo efficacy, PC-3 prostate tumor xenograft in nude mice; conditions: 50 mg/kg i.p.
PC-3 cells [6] = test: Apoptosis detection by ELISA (cytoplasmic DNA-histone complexes), PC-3; assay type: cell-based, human; conditions: PC-3 and A375 cells, 24 h
Description: The levels of DNA-histone complexes were used to represent cell apoptosis.
Quantification of the enrichment of mono- and oligonucleosomes in the cytoplasm was used to determine the ability of the compounds to induce apoptosis (cell death detection ELISA PLUS, Roche, Germany) following the manufacturer's instructions.

LNCaP cells = test: SRB cytotoxicity assay, LNCaP; assay type: cell-based, human; conditions: read-out: IC50 ± SEM LNCaP
Description: (§1) Cells were stained with SRB solution.

A375 melanoma cells = test: SRB cytotoxicity assay, A375; assay type: cell-based, human; conditions: read-out: IC50 ± SEM A375
[7] = Aqueous solubility, Multiscreen Solubility Filter Plate, PBS pH 7.4; assay type: physicochemical; conditions: HCl salt, vs 1h
[8] = system: three melanoma cell lines and four human prostate cancer cell lines; test: SRB cytotoxicity, melanoma and prostate cancer cell lines (ranges and averages over the panel); assay type: cell-based; conditions: Homo sapiens; text on Tables 2, 3, 12, 21; read-out: IC50 (range over cell lines)
NCI/ADR-RES cells = test: SRB cytotoxicity assay, NCI/ADR-RES (P-gp over-expressing); assay type: cell-based; conditions: Homo sapiens
[9] = Pharmacokinetic study in Sprague-Dawley rats; conditions: rat
[10] = Metabolic stability in mouse liver microsomes; assay type: in vitro ADME; conditions: Table 20
[11] = Metabolic stability in dog liver microsomes; assay type: in vitro ADME; conditions: Table 20
[12] = Metabolic stability in monkey liver microsomes; assay type: in vitro ADME; conditions: Table 20
[13] = Metabolic stability in rat liver microsomes; assay type: in vitro ADME; conditions: Table 20
DU 145 cells = test: SRB cytotoxicity assay, DU 145; assay type: cell-based, human; conditions: Table 12; 96 h; read-out: IC50 ± SEM Du 145
Description: as §1

WM-164 melanoma cells = test: SRB cytotoxicity assay, WM-164; assay type: cell-based, human; conditions: Table 12; 48 h; read-out: IC50 ± SEM WM164
PPC-1 cells = system: PPC-1 cells
Description: as §1

PC-3 cells [14] = system: PC-3 cells
Description: as §1
Cells were stained with sulphorhodamine B (SRB) solution.

B16-F1 melanoma cells = test: SRB cytotoxicity assay, B16-F1; assay type: cell-based, mouse
PC-3/TxR cells [15] = system: PC-3/TxR cells
PC-3/TxR cells [16] = test: SRB cytotoxicity assay, paclitaxel-resistant PC-3/TxR; conditions: Table 15; data in parentheses; IC50 values in PC-3 and PC-3/TxR compared
B16-F1 melanoma tumors = test: In vivo efficacy, B16-F1 melanoma in C57/BL mice; set-up: species or system mouse; conditions: 60 mg/kg i.p. daily, 14 days
Method: Female C57/BL mice, age 4-6 weeks, were purchased from Harlan Laboratories (Harlan Laboratories Inc., Indianapolis, Ind.). The animal housing met the Association for Assessment and Accreditation and Laboratory Animal Care specifications. All of the procedures were conducted in accordance with guidelines of our Institutional Animal Care and Use Committee.
Tumor volume was expressed in cubic millimeters.

[17] = Pharmacokinetic study in ICR mice; conditions: 15 mg/kg i.v.
[18] = Table 12, 48 h, read-out: IC50 ± SEM B16-F1

## COc1cc(C(=O)c2cccc(-c3ccccc3)n2)cc(OC)c1OC [1c, (6-Phenylpyridin-2-yl)(3,4,5-trimethoxyphenyl)methanone]
[1]
  IC50: 12 to 35 nM

## COc1cc(C(=O)c2csc(-c3ccccc3)n2)cc(OC)c1OC [1h, (2-Phenyl-thiazol-4-yl)-(3,4,5-trimethoxy-phenyl)-methanone]
[2]; Table 16B, Phase I + II (UDP-glucuronic acid present)
  Half-life in HLM (Phase I + II): 17 min
[2]
  Half life in Human liver microsome: 17 min
[3]
  competition with colchicine-tubulin binding: specifically competed with colchicine binding to tubulin
Bovine brain tubulin; 10 μM (Example 22)
  inhibition of tubulin polymerization: 90%
Bovine brain tubulin; 10 μM, after 20 min, vs vehicle
  inhibition of tubulin polymerization: 47%
[4]
  time on the rotating rod vs vehicle group: no significant difference

## COc1cc(C(=O)c2csc(-c3ccc(F)cc3)n2)cc(OC)c1OC [2k]
[5]
  dose not causing greater than 10% loss of body weight: ≤ 15 mg/kg
Bovine brain tubulin; 10 μM (Example 22)
  inhibition of tubulin polymerization: 90%
A375 melanoma xenografts
  % T/C: 29%

## COc1cc(C(=O)c2csc(-c3ccc(O)cc3)n2)cc(OC)c1OC [2l, (2-(4-Hydroxyphenyl)thiazol-4-yl)(3,4,5-trimethoxyphenyl)methanone]
Bovine brain tubulin; 10 μM (Example 22)
  inhibition of tubulin polymerization: 55%
PC-3 xenografts
  % T/C: 34%
PC-3 cells [6]
  concentration inducing apoptosis: greater than or equal to 200 nM

## COc1cc(C(=O)c2csc(-c3ccc(CC(N)=O)cc3)n2)cc(OC)c1OC [2q]
LNCaP cells; Table 6
  IC50: > 10000 nM
A375 melanoma cells; Table 6
  IC50: > 20000 nM

## COc1cc(C(=O)c2csc(-c3ccc(CN)cc3)n2)cc(OC)c1OC.Cl [2r, (2-(4-(Aminomethyl)phenyl)thiazol-4-yl)(3,4,5-trimethoxyphenyl)methanone hydrochloride]
[7]
  increase of solubility: over 35 fold
[8]
  IC50: 13 to 80 nM
NCI/ADR-RES cells; Table 5A, P-gp over-expressed, read-out: IC50 NCI/ADR-RES
  IC50: 11 ± 2 nM

## COc1cc(C(=O)c2csc(Nc3ccc(F)cc3)n2)cc(OC)c1OC.Cl [5Hc, (2-(p-Fluorophenylamino)thiazol-4-yl)(3,4,5-trimethoxyphenyl)methanone hydrochloride salt]
[9]
  increased exposure (AUC) by the oral route compared to 1h: more than 4.3 fold

## COc1cc(-c2nccc3ccc(-c4ccc5[nH]ccc5c4)cc23)cc(OC)c1OC [6a]
[2]
  Half life in Human liver microsome: 32 min
[10]
  Half life in Mouse liver microsome: 3.43 min
[11]
  Half life in Dog liver microsome: 13 min
[12]
  Half life in Monkey liver microsome: 16 min
[13]
  Half life in Rat liver microsome: 12 min

## c1cc2ccc(-c3ccc4[nH]ccc4c3)cc2c(-c2ccc3[nH]ccc3c2)n1 [6b, 1,7-Bis-(1H-indol-5-yl)-isoquinoline]
[2]
  Half life in Human liver microsome: 40 min
[10]
  Half life in Mouse liver microsome: 10 min
[11]
  Half life in Dog liver microsome: 30 min
[12]
  Half life in Monkey liver microsome: 13 min
[13]
  Half life in Rat liver microsome: 9 min

## Fc1ccc(-c2nccc3ccc(-c4ccc5[nH]ccc5c4)cc23)cc1 [6c, 1-(4-Fluoro-phenyl)-7-(1H-indol-5-yl)-isoquinoline]
[2]
  Half life in Human liver microsome: 47 min
[10]
  Half life in Mouse liver microsome: 13 min
[11]
  Half life in Dog liver microsome: 29 min
[12]
  Half life in Monkey liver microsome: 9 min
[13]
  Half life in Rat liver microsome: 14 min

## COc1cc(C(=O)c2c[nH]c(-c3ccc(Cl)cc3)n2)cc(OC)c1OC [12fa, (2-(4-chlorophenyl)-1H-imidazol-4-yl)(3,4,5-trimethoxyphenyl)methanone]
[2]; Table 16B, Phase I
  Half-life in HLM (Phase I): 44 min
NCI/ADR-RES cells; Table 12, read-out: IC50 ± SEM NCl/ADR-RES
  IC50: 19 nM

## O=C(c1ccc(F)cc1)c1c[nH]c(-c2ccc(O)cc2)n1 [12kb]
DU 145 cells
  IC50: > 10000 nM
LNCaP cells; Table 12, 96 h
  IC50: > 10000 nM
A375 melanoma cells; Table 12, 48 h
  IC50: 10000 nM
WM-164 melanoma cells
  IC50: > 10000 nM
PPC-1 cells; read-out: IC50 ± SEM PPC-1, Table 12, 96 h
  IC50: > 10000 nM
PC-3 cells [14]; read-out: IC50 ± SEM PC-3, Table 12, 96 h
  IC50: > 10000 nM
B16-F1 melanoma cells; [18]
  IC50: > 10000 nM

## O=C(c1cc(O)c(O)c(O)c1)c1c[nH]c(-c2ccc(O)c(O)c2)n1 [13ha]
A375 melanoma cells; Table 12, 48 h
  IC50: > 10000 nM
WM-164 melanoma cells
  IC50: > 10000 nM
B16-F1 melanoma cells; [18]
  IC50: > 10000 nM

## COc1cc(C(=O)c2cn(S(=O)(=O)c3ccccc3)c(-c3cn(S(=O)(=O)c4ccccc4)c4ccccc34)n2)cc(OC)c1OC [17yaa, (1-(phenylsulfonyl)-2-(1-(phenylsulfonyl)-1H-indol-3-yl)-1H-imidazol-4-yl)(3,4,5-trimethoxyphenyl)methanone]
PC-3/TxR cells [15]
  IC50: 2.1 ± 0.1 nM
PPC-1 cells
  IC50: 21 ± 0.1 nM
PC-3/TxR cells [16]
  Resistance factor PC-3/TxR vs PC-3: 0.4
PC-3 cells [14]
  IC50: 5.2 ± 0.2 nM
B16-F1 melanoma cells; Table 6A, read-out: IC50 B16-F1
  IC50: 538 nM

## CN(C)/N=N/c1[nH]cnc1C(N)=O [DTIC]
B16-F1 melanoma tumors
  tumor volume reduction: 51%

## COc1cc(C(=O)c2csc(-c3ccc(F)cc3)n2)cc(OC)c1OC [SMART-F]
A375 melanoma xenografts; Melanoma (A375) xenograft
  T-C: 11 days
[17]; mice
  AUC: 2100 ng·h/mL

## CC[C@]1(O)C[C@@H]2CN(CCc3c([nH]c4ccccc34)[C@@](C(=O)OC)(c3cc4c(cc3OC)N(C)[C@H]3[C@@](O)(C(=O)OC)[C@H](OC(C)=O)[C@]5(CC)C=CCN6CC[C@]43[C@@H]65)C2)C1 [Vinblastine, vinblastine, reference compound]
[3]
  competition with colchicine-tubulin binding: did not inhibit the colchicine-tubulin binding
[4]
  time on the rotating rod vs vehicle group: gradually reduced the time

## O=C(c1ccc2[nH]ccc2c1)c1csc(-c2cc3ccccc3[nH]2)n1 [compound 21, (2-(1H-indol-2-yl)thiazol-4-yl)(1H-indol-5-yl)methanone]
[8]
  IC50: 76 to 116 nM
[17]; ICR mice
  times higher Vss than 1h and 2k: 2-3 times
